Data from publication PMC9530166, “Allosteric regulation of glycogen breakdown by the second messenger cyclic di-GMP” (Nature Communications, 2022).
“Also recorded” adds a separate entry of the source.

Columns and labels:
His6-GlgX = assay: DRaCALA with [32P]-c-di-GMP, wild-type GlgX; assay type: binding, Streptomyces venezuelae; conditions: excess (100 µM) unlabeled nucleotide
Description: (§1) Fig. 1 GlgX binds c-di-GMP. a Quantification of c-di-GMP in S. venezuelae cell extracts using LC-MS/MS. Cells were harvested during late vegetative growth (8–10 h), transition to sporulation (12–16 h), and sporulation (18–20 h). Data are presented as the mean of biological replicates ±SD (n = 3). […] Source data are provided in the Source data file. c [^32P]-c-di-GMP binds to GlgX in DRaCALA assay indicated by dark spots in the center of the nitrocellulose membrane. For competition, excess (100 µM) of unlabeled c-di-GMP, c-di-AMP, or GTP was added to the reaction containing [^32P]-c-di-GMP and GlgX.
To determine if the interaction between Vnz29170 (herein called GlgX) and c-di-GMP is direct, we purified an N-terminally His6-tagged GlgX protein and performed nano differential scanning fluorimetry (nanoDSF) thermal shift assays. […] In addition, we used differential radial capillary action of ligand assays (DRaCALA), which allows visualization of protein-bound radiolabeled ligand as a central spot after the application of the protein-ligand mix onto nitrocellulose. Using DRaCALA we confirmed that GlgX from S. venezuelae binds ^32P-labeled c-di-GMP.
For DRaCALA assays, purified His6-GlgX (15 μg) was mixed with 0.5 μl undiluted [^32P]-c-di-GMP (42 nM) (Hartmann Analytic GmbH, Braunschweig) in binding buffer (25 mM Tris pH 8; 150 mM NaCl; 2.5% (v/v) glycerol; 5 mM MgCl2) and the reaction was incubated at rt for 5 min. For competition assays, 100 μM nonlabeled nucleotides were added to the samples and incubated at rt for 5 min prior to the addition of [^32P]-c-di-GMP. Reactions (10 μl) were spotted on the same nitrocellulose membrane (Roth), air dried for 10 min and analyzed via phosphorimaging.

His6-GlgX (Vnz29170) = assay: nanoDSF label-free thermal shift assay, wild-type GlgX; assay type: binding, Streptomyces venezuelae; conditions: 10 µM GlgX, 1 mM c-di-AMP
Description: as §1
To determine if the interaction between Vnz29170 (herein called GlgX) and c-di-GMP is direct, we purified an N-terminally His6-tagged GlgX protein and performed nano differential scanning fluorimetry (nanoDSF) thermal shift assays. […]
For label-free thermal shift assay experiments, 10 μM purified protein in 25 mM Tris pH 8, 150 mM NaCl, 2.5% (v/v) glycerol, and 5 mM MgCl2 was incubated without or with (1 mM) of nonlabeled c-di-GMP or c-di-AMP, respectively, at rt for 10 min. Reactions were subsequently analyzed in a Tycho NT.6 (NanoTemper Technologies) device with a 30 K/min thermal ramp and the internal fluorescence at 330 and 350 nm was recorded. […]

GlgX = GlgX (Streptomyces venezuelae, UniProt F2RAW5); assay: Fluorescence polarization (FP) binding, wild-type GlgX; conditions: FP, 1 nM fluoresceinated ligand, 25 °C
Sequence of GlgX (F2RAW5 entry or part of it): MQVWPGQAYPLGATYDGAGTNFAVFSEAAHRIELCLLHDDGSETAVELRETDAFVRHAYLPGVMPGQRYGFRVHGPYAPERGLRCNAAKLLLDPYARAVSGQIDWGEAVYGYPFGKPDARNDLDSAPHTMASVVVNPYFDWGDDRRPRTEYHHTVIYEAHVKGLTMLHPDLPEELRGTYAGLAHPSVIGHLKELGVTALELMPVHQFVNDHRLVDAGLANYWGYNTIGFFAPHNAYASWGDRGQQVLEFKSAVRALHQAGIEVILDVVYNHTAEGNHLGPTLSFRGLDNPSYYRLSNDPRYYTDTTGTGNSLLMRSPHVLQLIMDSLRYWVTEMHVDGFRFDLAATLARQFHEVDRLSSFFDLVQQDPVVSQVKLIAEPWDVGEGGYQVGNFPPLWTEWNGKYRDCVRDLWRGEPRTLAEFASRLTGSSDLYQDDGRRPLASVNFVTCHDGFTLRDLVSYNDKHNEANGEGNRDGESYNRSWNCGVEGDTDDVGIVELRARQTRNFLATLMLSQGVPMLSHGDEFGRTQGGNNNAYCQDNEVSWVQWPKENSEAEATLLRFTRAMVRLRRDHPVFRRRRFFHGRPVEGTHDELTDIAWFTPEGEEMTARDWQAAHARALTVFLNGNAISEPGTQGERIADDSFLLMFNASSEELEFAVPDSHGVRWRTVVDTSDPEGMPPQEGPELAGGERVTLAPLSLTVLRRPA
Source text: (§2) Fig. 5 Structure of the S. venezuelae GlgX-c-di-GMP complex. a Ribbon diagram of the S. venezuelae GlgX-c-di-GMP complex with one GlgX subunit colored cyan and the other salmon. Shown as sticks are the c-di-GMP molecules bound at each end of the antiparallel dimer. […] There was clear density for each c-di-GMP molecule. b Close up of the GlgX-c-di-GMP binding interaction. Key residues mediating contacts to the c-di-GMP are shown as sticks and labeled. Hydrogen bonds from GlgX residues that specify binding to the guanine are indicated by yellow dashed lines. c Fluorescence polarization (FP) binding isotherm showing interaction of GlgX, GlgXE47A-R49A and GlgXR438A-R579A for F-c-di-GMP in red, green and blue respectively. Also shown is the binding isotherm for GlgX binding to F-c-di-AMP in black. […] The y-axis and x-axis are millipolarization (mP) units and GlgX concentration (μM), respectively. Shown are representative binding curves for each. The experiments were performed in technical triplicates and the error between measurements reported. Error bars represent SD of the measurements. Source data are provided in the Source data file.
Thus, we used this F-tagged c-di-GMP in fluorescence polarization (FP) studies to quantify the interaction between GlgX and c-di-GMP. […] To ensure that the presence of the fluorescent tag was not impacting the GlgX interaction with c-di-GMP we used microscale thermophoresis (MST) to quantify c-di-GMP binding to GlgX. […] But to further probe the structural model we created GlgXE47A-R49A and GlgXR438A-R579A mutants and performed FP studies with these proteins.
To measure c-di-GMP binding to GlgX and GlgX mutants, 2′-O-(6-[Fluoresceinyl]aminohexylcarbamoyl)-cyclic diguanosine monophosphate (2′-Fluo-AHC-c-di-GMP) (BioLog), was used as a fluoresceinated reporter ligand. This molecule is conjugated via a nine atom spacer to one of the c-di-GMP 2′ hydroxyl groups. […] 2′-O-(6-[Fluoresceinyl]aminohexylcarbamoyl)-cyclic diadenosine monophosphate (2′-Fluo-AHC-c-di-AMP) (BioLog) was also used in binding studies to assess specificity of GlgX for c-di-GMP. […]

[1] = molecular target: S. venezuelae glycogen debranching enzyme GlgX (Vnz29170) (S. venezuelae); assay: crystal structure; GlgX with 3 mM c-di-GMP, 3.34 Å; 40% ethylene glycol, 0.1 M sodium acetate pH 4.6; two GlgX dimers in the asymmetric unit
GlgXE47A-R49A = assay: Fluorescence polarization binding, GlgXE47A-R49A; design: species or system Streptomyces venezuelae
Sequence of GlgXE47A-R49A (as listed by the source, stated change not applied): as the sequence (F2RAW5 entry or part of it) above, with E47A, R49A counted along it
Source text: as §2, with “Error bars represent SD of the measurements. Source data are provided in the Source data file.” left out
(§3) Thus, we used this F-tagged c-di-GMP in fluorescence polarization (FP) studies to quantify the interaction between GlgX and c-di-GMP. […] To ensure that the presence of the fluorescent tag was not impacting the GlgX interaction with c-di-GMP we used microscale thermophoresis (MST) to quantify c-di-GMP binding to GlgX. […]

GlgXR438A-R579A = assay: Fluorescence polarization binding, GlgXR438A-R579A; design: species or system Streptomyces venezuelae
Sequence of GlgXR438A-R579A (as listed by the source, stated change not applied): as the sequence (F2RAW5 entry or part of it) above, with R438A, R579A counted along it
Source text: as §2, with “Error bars represent SD of the measurements. Source data are provided in the Source data file.” left out
as §3

Q: For `Nc1ncnc2c1ncn2[C@@H]1O[C@@H]2COP(=O)(O)O[C@H]3[C@@H](O)[C@H](n4cnc5c(N)ncnc54)O[C@@H]3COP(=O)(O)O[C@H]2[C@H]1O` [c-di-AMP], which “competition with 32P-c-di-GMP for binding to GlgX” value (His6-GlgX) is on record?
A: not c-di-AMP or GTP competed

Q: And the “effect of ligand on melting point of His6-GlgX” value (His6-GlgX (Vnz29170))?
A: no effect

Q: For `Nc1nc2c(ncn2[C@@H]2O[C@H](COP(=O)(O)OP(=O)(O)OP(=O)(O)O)[C@@H](O)[C@H]2O)c(=O)[nH]1` [GTP], which “competition with 32P-c-di-GMP for binding to GlgX” value (His6-GlgX) is on record?
A: not c-di-AMP or GTP competed

Q: “2′-O-(6-[Fluoresceinyl]aminohexylcarbamoyl)-cyclic diadenosine monophosphate [F-c-di-AMP]” was tested. Which “binding to WT GlgX in FP” value (GlgX) did it give?
A: did not bind; also recorded: essentially no binding

Q: For “S. venezuelae glycogen debranching enzyme GlgX (Vnz29170)”, which stoichiometry N [1] is on record?
A: 2

Q: How did the “binding to mutant in FP” value (GlgXE47A-R49A) turn out when “2′-O-(6-[Fluoresceinyl]aminohexylcarbamoyl)-cyclic diguanosine monophosphate [F-c-di-GMP]” was run?
A: nonsaturable binding

Q: And the Kd (GlgX; WT GlgX titrated, pH 7.5, read-out: Kd)?
A: 8.2 ± 1 µM

Q: What about the “binding to mutant in FP” value (GlgXR438A-R579A) of the same compound?
A: nonsaturable binding
